The values that follow come from patent publication US12109215B2, “Combination therapies for inhibition of polo-like kinase 4” (UNIVERSITY HEALTH NETWORK, priority 2017, dated 2024).

One data set has as its system CT26 cells. Description: Re-challenge by inoculation with CT26 cells on Day 36 of animals with complete regression. It is filed as in vivo, BALB/cJ mice. The procedure: Further to the tumor volume measurements, the animals in which complete regression had occurred as described above, either by CFI-400945 monotherapy or by IgG2a anti-PD-1 antibody-CFI-400945 combination therapy, were re-challenged by inoculation with CT26 cells on Day 36, as shown in FIGS. 1D (6.5 mg/kg QD CFI-400945+anti-PD-1 antibody), 1E (13 mg/kg BIW CFI-400945), 1F (13 mg/kg BIW CFI-400945+anti-PD-1 antibody), 1G (52 mg/kg QW CFI-400945), 1H (52 mg/kg QW CFI-400945+anti-PD-1 antibody) and 1J (104 mg/kg CFI-400945 on Days 0 and 14+anti-PD-1 antibody).

Data set [1] is described as follows: Tolerability in the CT26 tumor study (body weight, animal death). It is filed as in vivo. The procedure:
(§1) BALB/cJ mice were inoculated subcutaneously with 1×10^6 CT26 cells, and C57BL/6 mice were inoculated subcutaneously with 0.5×10^6 MC38 cells. The mice were then randomized. Animal weights were monitored daily, and tumor volume was measured three times per week.
(§2) The anti-PD-1 antibody or the isotype control were administered by intraperitoneal (IP) injection. 150 μg anti-PD-1 antibody was administered in four doses, i.e., on Days 0, 3, 6 and 10.

The subject of another data set is CT26 tumor. The data set is described as follows: Established CT26 tumor treatment in BALB/cJ mice (tumor volume, regression). It is filed as in vivo. The procedure: as §1
(§3) […] was defined as 100×[1−TVf,treated−TVi,treated)/(TVf,control−TVi,control)], where TVf is the average tumor volume at the end of study and TVi is the average tumor volume at the end initiation of treatment. In cases in which tumor regression occurred, percentage of tumor regression was defined as 100×[1−(TVf,treated/TVi,treated)]. At the completion of each study, the mice were killed by an anesthetic overdose, and tumor tissue was removed for further analysis.
Treatments were initiated when tumor volumes reached an average size of ˜60 mm^3. To treat an established CT26 or MC38 tumor, the animals were first assigned into groups, i.e., the control group receiving rat IgG2a isotype control, the group receiving the compound CFI-400945 monotherapy, the group receiving the rat IgG2a anti-PD-1 antibody monotherapy and the group receiving the combination therapy.
The compound CFI-400945 and the vehicle (water) were administered by oral gavage (PO), at one of the following dosages: (i) 6.5 mg/kg once daily (QD) for 21 days; (ii) 13 mg/kg twice a week (BIW or 2 on/5 off) for 21 days; (iii) 52 mg/kg once weekly (QW) for 21 days; and (iv) 104 mg/kg in two doses, i.e., on Days 0 and 14.
as §2

The test system of a further data set is MC38 tumor. The data set is described as follows: Established MC38 tumor treatment in C57BL/6 mice (tumor volume, regression). It is filed as in vivo. The conditions noted are these: first batch of MC38 experiments; CFI-400945 6.5 mg/kg once daily for 21 days, alone (FIG. 2C) or with anti-PD-1 antibody 150 μg Days 0, 3, 6, 10 (FIG. 2D). The procedure:
as §1, §3
Treatments were initiated when tumor volumes reached an average size of ˜60 mm^3. To treat an established CT26 or MC38 tumor, the animals were first assigned into groups, i.e., the control group receiving rat IgG2a isotype control, the group receiving the compound CFI-400945 monotherapy, the group receiving the rat IgG2a anti-PD-1 antibody monotherapy and the group receiving the combination therapy. […]

Where [2] appears, read: CFI-400945 104 mg/kg PO on Days 0 and 14.

Regarding `COc1ccc2c(c1)[C@]1(C[C@H]1c1ccc3c(/C=C/c4ccc(CN5C[C@@H](C)O[C@@H](C)C5)cc4)n[nH]c3c1)C(=O)N2` [CFI-400945], the “tumor growth after re-challenge with CT26 cells on Day 36” value in the data set with CT26 cells (animals with complete regression after CFI-400945 13 mg/kg BIW, alone (FIG. 1E) or + anti-PD-1 antibody (FIG. 1F)) is given as “tumors did not grow in any mouse”; in the data set on CT26 cells (animals with complete regression after CFI-400945 52 mg/kg QW, alone (FIG. 1G) or + anti-PD-1 antibody (FIG. 1H)), “tumors did not grow in any mouse”. For the same compound, the tolerability of dosage entry in data set [1] (CFI-400945 6.5 mg/kg PO daily for 21 days) is listed as “well-tolerated”; in data set [1] (CFI-400945 13 mg/kg PO twice a week for 21 days), “well-tolerated”; in data set [1] (CFI-400945 52 mg/kg PO once weekly for 21 days) it was “well-tolerated”; in data set [1] (setting [2]), “not be well-tolerated”. Further, in data set [1] (CFI-400945 6.5 mg/kg PO daily for 21 days, data not shown), the “body weight loss or animal death” value is on record as “lack of any significant body weight loss (data not shown) or any animal death”. The animals found dead entry in data set [1] (setting [2]) is recorded as “two”. The “complete regression of CT26 tumors” value in the data set with CT26 tumor (CFI-400945 6.5 mg/kg PO once daily for 21 days, alone (FIG. 1C) or with anti-PD-1 antibody 150 μg IP Days 0, 3, 6, 10 (FIG. 1D)) is “no instances in which complete regression was observed”. In addition, the CT26 tumor growth result in the data set with CT26 tumor (CFI-400945 6.5 mg/kg PO once daily for 21 days, single agent (FIG. 1C)) is given as “tumor growth delay”. Moreover, the “CT26 tumors with regression” value in the data set with CT26 tumor (CFI-400945 13 mg/kg PO twice a week for 21 days, alone (FIG. 1E) or with anti-PD-1 antibody 150 μg IP Days 0, 3, 6, 10 (FIG. 1F)) was “one of the eight”; in the data set with CT26 tumor (CFI-400945 52 mg/kg PO once weekly for 21 days, alone (FIG. 1G) or with anti-PD-1 antibody 150 μg IP Days 0, 3, 6, 10 (FIG. 1H)), “one of the eight”. The “regression of MC38 tumors” value in the data set with MC38 tumor is recorded as “Regression was also observed”.
